Results published in patent US20260240810A1, “COMPOSITIONS AND METHODS FOR REDUCING ADVERSE SIDE EFFECTS IN CANCER TREATMENT” (priority 2022, published 2026).

Assay: PREVLAR trial: adverse events
Type: in vivo, human
Text: Of potential significance for OM, decreased rates of several pathognomonic toxicities were seen (see Table 4).
• CTCAEv.4 are a set of criteria for the standardized classification of AEs of drugs used in cancer therapy.

[1] = Arm 1: RRx-001 Pre-treatment + SOC Chemoradiation (N = 12)
[2] = Arm 1: RRx-001 pretreatment + SOC chemoradiation
[3] = Arm 2: RRx-001 Pre-treatment + 2 Concurrent Doses + SOC Chemoradiation (N = 11)
[4] = Arm 2: RRx-001 pretreatment + 2 concurrent doses + SOC chemoradiation
[5] = Arm 3: RRx-001 Pre-treatment + 6 Concurrent Doses + SOC Chemoradiation (N = 13)
[6] = Arm 3: RRx-001 pretreatment + 6 concurrent doses + SOC chemoradiation

O=C(CBr)N1CC([N+](=O)[O-])([N+](=O)[O-])C1 [RRx-001, 2-bromo-1-(3,3-dinitroazetidin-1-yl) ethan-1-one]
27.3%: SAE frequency: Neutrophil count decreased [4]
18.2%: radiation-induced skin injury (Arm 2) | SAE frequency: Acute kidney injury [4]
7.7%: SAE frequency: Complication associated with device [6] | SAE frequency: Dry Mouth [6] | SAE frequency: Embolism [6] | SAE frequency: Gastric Perforation [6] | SAE frequency: Hypocalcemia [6] | SAE frequency: Hypokalemia [6] | SAE frequency: Hypophosphatasemia [6] | SAE frequency: Hypotension [6] | SAE frequency: Lung infection [6] | SAE frequency: Nausea [6] | SAE frequency: Oral dysaesthesia [6] | SAE frequency: Oral dysesthesia [6] | SAE frequency: Oral pain [6] | SAE frequency: Oropharyngeal pain [6] | SAE frequency: Salivary duct inflammation [6] | SAE frequency: Stomatitis [6] | SAE frequency: Swelling face [6] | SAE frequency: Tumor pain [6] | SAE frequency: Vomiting [6] | SAE frequency: Weight decreased [6]
53.8%: SAE frequency: Lymphocyte count decreased [6]
discomfort during infusion: toxicity attributed to RRx-001 (PREVLAR)
3 (23.1): reported adverse events (CTCAEv.4): Candida infection [5] | reported adverse events (CTCAEv.4): Platelet count decreased [5] | reported adverse events (CTCAEv.4): Vomiting [5]
1 (8.3): reported adverse events (CTCAEv.4): Oral candidiasis [1] | reported adverse events (CTCAEv.4): Vomiting [1]
30.8%: SAE frequency: Dysphagia [6] | SAE frequency: Neutrophil count decreased [6] | SAE frequency: White blood cell count decreased [6]
1 (7.7): reported adverse events (CTCAEv.4): Neutrophil count decreased [5] | reported adverse events (CTCAEv.4): Oral candidiasis [5] | reported adverse events (CTCAEv.4): Salivary duct inflammation [5] | reported adverse events (CTCAEv.4): White blood cell count decreased [5]
9.1%: Oral pain (Arm 2) | SAE frequency: Alanine aminotransferase increased [4] | SAE frequency: Anemia [4] | SAE frequency: Blood creatinine increased [4] | SAE frequency: Candida infection [4] | SAE frequency: Colitis [4] | SAE frequency: Deafness [4] | SAE frequency: Decreased appetite [4] | SAE frequency: Device related thrombosis [4] | SAE frequency: Dysphagia [4] | SAE frequency: Flank pain [4] | SAE frequency: Hypokalemia [4] | SAE frequency: Hypophosphatasemia [4] | SAE frequency: Laryngeal inflammation [4] | SAE frequency: Leukocytosis [4] | SAE frequency: Nausea [4] | SAE frequency: Oral pain [4] | SAE frequency: Oropharyngeal pain [4] | SAE frequency: Stomatitis [4] | SAE frequency: Sudden death [4]
33.3%: SAE frequency: Lymphocyte count decreased [2]
2 (15.4): reported adverse events (CTCAEv.4): Dysphagia [5] | reported adverse events (CTCAEv.4): Weight decreased [5]
4 (30.8): reported adverse events (CTCAEv.4): Anemia [5] | reported adverse events (CTCAEv.4): Decreased appetite [5] | reported adverse events (CTCAEv.4): Dry mouth [5] | reported adverse events (CTCAEv.4): Oral pain [5] | reported adverse events (CTCAEv.4): Radiation skin injury [5]
15.4%: SAE frequency: Decreased appetite [6] | SAE frequency: Gastrointestinal tube insertion [6]
0 (0): reported adverse events (CTCAEv.4): Anemia [1] | reported adverse events (CTCAEv.4): Blood creatinine increased [1] | reported adverse events (CTCAEv.4): Blood urea increased [1] | reported adverse events (CTCAEv.4): Candida infection [1] | reported adverse events (CTCAEv.4): Constipation [1] | reported adverse events (CTCAEv.4): Decreased appetite [1] | reported adverse events (CTCAEv.4): Dermatitis [1] | reported adverse events (CTCAEv.4): Dry mouth [1] | reported adverse events (CTCAEv.4): Dysgeusia [1] | reported adverse events (CTCAEv.4): Dysphagia [1] | reported adverse events (CTCAEv.4): Glossodynia [1] | reported adverse events (CTCAEv.4): Laryngeal inflammation [1] | reported adverse events (CTCAEv.4): Neutrophil count decreased [1] | reported adverse events (CTCAEv.4): Oral dysaesthesia [1] | reported adverse events (CTCAEv.4): Oral dysesthesia [1] | reported adverse events (CTCAEv.4): Oral pain [1] | reported adverse events (CTCAEv.4): Platelet count decreased [1] | reported adverse events (CTCAEv.4): Radiation skin injury [1] | reported adverse events (CTCAEv.4): Salivary duct inflammation [1] | reported adverse events (CTCAEv.4): Weight decreased [1] | reported adverse events (CTCAEv.4): White blood cell count decreased [1] | reported adverse events (CTCAEv.4): Anemia [3] | reported adverse events (CTCAEv.4): Blood urea increased [3] | reported adverse events (CTCAEv.4): Constipation [3] | reported adverse events (CTCAEv.4): Decreased appetite [3] | reported adverse events (CTCAEv.4): Dermatitis [3] | reported adverse events (CTCAEv.4): Dry mouth [3] | reported adverse events (CTCAEv.4): Dysgeusia [3] | reported adverse events (CTCAEv.4): Dysphagia [3] | reported adverse events (CTCAEv.4): Glossodynia [3] | reported adverse events (CTCAEv.4): Laryngeal inflammation [3] | reported adverse events (CTCAEv.4): Neutrophil count decreased [3] | reported adverse events (CTCAEv.4): Oral candidiasis [3] | reported adverse events (CTCAEv.4): Oral dysaesthesia [3] | reported adverse events (CTCAEv.4): Oral dysesthesia [3] | reported adverse events (CTCAEv.4): Platelet count decreased [3] | reported adverse events (CTCAEv.4): Salivary duct inflammation [3] | reported adverse events (CTCAEv.4): Weight decreased [3] | reported adverse events (CTCAEv.4): White blood cell count decreased [3] | reported adverse events (CTCAEv.4): Blood creatinine increased [5] | reported adverse events (CTCAEv.4): Blood urea increased [5] | reported adverse events (CTCAEv.4): Constipation [5] | reported adverse events (CTCAEv.4): Dermatitis [5] | reported adverse events (CTCAEv.4): Glossodynia [5] | reported adverse events (CTCAEv.4): Laryngeal inflammation [5] | reported adverse events (CTCAEv.4): Oral dysaesthesia [5] | reported adverse events (CTCAEv.4): Oral dysesthesia [5]
1%: related vomiting (Arm 1) | related vomiting (Arm 2)
none were attributed to RRx-001: SAEs attributed to RRx-001 (PREVLAR)
1 (9.1): reported adverse events (CTCAEv.4): Candida infection [3] | reported adverse events (CTCAEv.4): Oral pain [3] | reported adverse events (CTCAEv.4): Vomiting [3]
0%: Related anemia (Arm 1) | neutrophil count decrease (Arm 1) | related oral dysesthesia (Arm 1) | Oral pain (Arm 1, p=0.0095 vs control) | related constipation (Arm 1, p=0.0095 vs control) | Related anemia (Arm 2) | neutrophil count decrease (Arm 2) | related constipation (Arm 2) | related oral dysesthesia (Arm 2)
7 (53.8): reported adverse events (CTCAEv.4): Dysgeusia [5]
none: radiation-induced skin injury (Arm 1, p=0.0007 vs control) | incidence of salivary duct inflammation (Arms 1 and 2, vs control 30%, N.S.) | incidence of dry mouth (Arms 1 and 2, vs control 60%, p=0.0028) | incidence of dysphagia (Arms 1 and 2, vs control 70%, p=0.0007) | weight loss (RRx-001-treated patients vs control 50%, p=0.0095)
localized, mild, and transient: character of toxicity attributable specifically to RRx-001 (infusion)
16.7%: SAE frequency: Oropharyngeal pain [2] | SAE frequency: White blood cell count decreased [2]
8.3%: SAE frequency: Anemia [2] | SAE frequency: Atrial flutter [2] | SAE frequency: Decreased appetite [2] | SAE frequency: Dysgeusia [2] | SAE frequency: Febrile neutropenia [2] | SAE frequency: Hypertension [2] | SAE frequency: Hypoacusis [2] | SAE frequency: Hypokalemia [2] | SAE frequency: Nausea [2] | SAE frequency: Neutrophil count decreased [2] | SAE frequency: Respiratory tract infection [2] | SAE frequency: Vomiting [2] | SAE frequency: Weight decreased [2]
36.4%: SAE frequency: White blood cell count decreased [4]
did not statistically impact: impact on marrow-related AEs (anemia, neutropenia), renal function or the incidence of candidiasis (RRx-001 treatment vs control)
2 (18.2): reported adverse events (CTCAEv.4): Blood creatinine increased [3] | reported adverse events (CTCAEv.4): Radiation skin injury [3]
72.7%: SAE frequency: Lymphocyte count decreased [4]
